Measured values from patent US8632846B2, “Apparatus and methods for loading a drug eluting medical device” (Medtronic Vascular, Inc., priority 2010, dated 2014).

Assay: solubility of sirolimus in solvents / dispersion media
Type: physicochemical
Experimental: Solution 524 is a homogeneous mixture in which therapeutic substance 112 dissolves within a solvent or a solvent mixture. In one embodiment, solution 524 includes a high-capacity solvent 528 which is an organic solvent that has a high capacity to dissolve therapeutic substance 112. High capacity as utilized herein is defined as an ability to dissolve therapeutic substance 112 at concentrations greater than 500 mg of substance per milliliter of solvent. Examples of high capacity drug dissolving solvents for sirolimus and similar substances include but are not limited to tetrahydrofuran (THF), di-chloromethane (DCM), chloroform, and di-methyl-sulfoxide (DMSO). In addition to the high-capacity solvent, solution 524 may include an excipient 526 in order to assist in drug elution. In one embodiment, excipient 526 may be a surfactant such as but not limited to sorbitan fatty acid esters such as sorbitan monooleate and sorbitan monolaurate, polysorbates such as polysorbate 20, polysorbate 60, and polysorbate 80, cyclodextrins such as 2-hydroxypropyl-beta-cyclodextrin and 2,6-di-O-methyl-beta-cyclodextrin, sodium dodecyl sulfate, octyl glucoside, and low molecular weight poly(ethylene glycol)s. In another embodiment, excipient 526 may be a hydrophilic agent such as but not limited to salts such as sodium chloride and other materials such as urea, citric acid, and ascorbic acid. […]

solubility in hexane (hexane): insoluble | solubility in water (water): insoluble
Structure (SMILES): CO[C@H]1C[C@@H]2CC[C@@H](C)[C@@](O)(O2)C(=O)C(=O)N2CCCC[C@H]2C(=O)O[C@H]([C@H](C)C[C@@H]2CC[C@@H](O)[C@H](OC)C2)CC(=O)[C@H](C)/C=C(\C)[C@@H](O)[C@@H](OC)C(=O)[C@H](C)C[C@H](C)/C=C/C=C/C=C/1C [sirolimus]
